This note sets out measurements from patent publication US20250345426A1, “METHODS FOR MAKING AND USING THERAPEUTIC CELLS” (THE REGENTS OF THE UNIVERSITY OF CALIFORNIA, priority 2022, published 2025).

The subject of this test is rituximab CAR-T cells. In words: T-cell subtype distribution (CD45RO/CD62L staining), rituximab CAR-T cells. The format is cell-based, human. As to conditions: 5 days of pharmacological modulation, vs vehicle. An excerpt:
FIG. 1A-G. Pharmacological inhibition of PI3K/AKT pathway modulates antigen-independent CAR-T cell activation. (A) Table of pharmacological inhibitors used during ex vivo expansion of rituximab CAR-T cells (left). Simplified schematic of the PI3K/AKT signaling axis where black arrows represent activation (right). (B) Activation marker expression by CAR^+ T cells in the absence of antigen stimulation after 5 days of pharmacological modulation. Data bars indicate the means of technical triplicates±1 S.D. The bars in FIG. 1B represent data from, untreated, vehicle, CAL-101, AZD5363, Rapamycin, MYCi975, and Betulin, respectively, from left to right. (C) TNF-α production CAR^+ T cells in the absence of antigen stimulation as quantified by intracellular flow cytometry. Data bars indicate the means of technical triplicates±1 S.D. The bars in FIG. 1B and FIG. 1C represent data from, untreated, vehicle, CAL-101, AZD5363, Rapamycin, MYCi975, and Betulin, respectively, from left to right. (D) Proliferation of CAR^+ T cells stained with CellTrace Violet (CTV) dye was assayed after a 4-day culture in the absence of target cells or exogenous cytokines. […] Statistical significance in panels B, C, and D was determined by two-tailed Student's t test with Sidak correction for multiple comparisons. * p<0.05, ** p<0.01, *** p<0.001, n.s. not statistically significant. […]
Antibody staining for flow-cytometry analysis. EGFRt expression was measured with biotinylated cetuximab (Eli Lilly; biotinylated in-house), followed by PE-conjugated streptavidin (Jackson ImmunoResearch #016-110-084). CAR expression was quantified by surface epitope staining using anti-Fc (Alexa Fluor 488, Jackson ImmunoResearch #709-546-098). Antigen-independent activation-marker expression of CAR-T cells was evaluated by antibody staining for CD137 (PE/Cy7, clone 4B4-1, BioLegend #309818), and PD-1 (FITC, clone EH12.2H7, BioLegend #329904) on Days 18 (i.e., 18 days after Dynabead addition and 11 days after Dynabead removal) and after 5-6 days of inhibitor culture (FIG. 1, FIG. 3). […]

`C=C(C)[C@@H]1CC[C@]2(CO)CC[C@]3(C)[C@H](CC[C@@H]4[C@@]5(C)CC[C@H](O)C(C)(C)[C@@H]5CC[C@]43C)[C@@H]12` [betulin, Betulin]: the “fraction of naïve and stem-cell memory T (Tn/scm) cells / T-cell differentiation” value is reported as “accelerated T-cell differentiation”. Turning to MYCi975, the “fraction of naïve and stem-cell memory T (Tn/scm) cells / T-cell differentiation” value is recorded as “accelerated T-cell differentiation”.
